Where two headings read alike, the source gives them in different places.
Tests used:
[1] = system: AMPA/kainate subtype of glutamate receptors; experiment: Antagonism of kainate-evoked currents, perforated whole-cell patch-clamp on primary cultures of hippocampal neurons; format: cell-based, rat; details: for EC50: cultured fetal rat hippocampal neurons
Experimental: Johnson Pharmaceutical Research Institute, Internal Research Reports, Document ID Accession Numbers A500,960 and 398533:1). In these studies, primary cultures enriched in neurons derived from the hippocampus of fetal rats were grown in vitro for 14 to 21 days under conditions that allowed them to reach a high density and develop numerous synaptic contacts. Perforated whole-cell patch-clamp procedures were used to study electrical properties of the neuronal membranes. In this procedure electrical contact between the recording electrode and the intracellular fluid is achieved by using amphotericin B to form pores in the cell membrane. This enables the cell membrane potential or current flow across the cell membrane to be recorded accurately. Kainate, topiramate and other test compounds were microperfused onto the neurons using a multi-barrel Teflon concentration clamp pipette. Topiramate (dissolved in DMSO at 1M, then diluted in the medium in which the neurons were incubated) was applied at concentrations of […] kainate was applied at concentrations 0.1 or 1 mM.
In an initial set of experiments, the antagonistic action of topiramate on kainate-evoked currents was determined as a function of the membrane potential.
The time-course of topiramate's antagonistic activity was evaluated in a second set of experiments. Kainate was pulsed into the bathing fluid for 3 sec at 1 min intervals, and once a baseline for the kainate-evoked current was established topiramate was applied constantly for a period ranging from a few min to 20 min. […] Concentration-response curves were generated for both phases of topiramate's blocking effect. The EC50 was approximately 1 micromolar for each phase. However, the concentration required for a maximum response was approximately 0.1 mM for the first phase (phase I block) but only approximately 0.010 mM for second (phase II block).
Because of the compelling evidence that the functional state of glutamate receptors is regulated partly by protein kinases and phosphatases (L. Y. WANG, F. A. TAVERNA, X. P. HUANG, J. F. MACDONALD, and D. R. HAMPSON, Science 259, 1173-1175, 1993), the phase II blocking effect could be explained by dephosphorylation of the kainate-activated receptors. Based on evidence that cAMP-dependent protein kinase (PKA) modulates kainate activated receptors(L. Y. WANG, F. A. TAVERNA, X. P. HUANG, J. F. MACDONALD, and D. R. HAMPSON, Science 259, 1173-1175, 1993), a set of experiments was undertaken to determine if dibutyryl cyclic AMP could restore the excitatory activity of kainate subsequent to topiramate's phase II block; i.e., cause the "irreversible" effect to be reversed. […] In another set of experiments the nonspecific phosphatase inhibitor okadaic acid was applied at 1 micromolar prior to, and during, the application of topiramate to determine if inhibiting the dephosphorylation of the kainate activated receptors would prevent the phase II blocking effect of topiramate.

[2] = system: rodent models of epilepsy; details: several rodent models of epilepsy; cited from earlier work
[3] = system: animal model of kindled epilepsy; details: cited from earlier work
[4] = system: human epilepsy; details: clinical trials of human epilepsy; cited from earlier work
[5] = 1 micromolar, prior to and during topiramate

SMILES: CCCC(=O)Nc1ncnc2c1ncn2[C@@H]1O[C@@H]2COP(=O)(O)O[C@H]2[C@H]1OC(=O)CCC [dibutyryl cyclic AMP]
- restoration of kainate-evoked current after topiramate's phase II block ([1]; applied subsequent to topiramate phase II block): partially or totally restored the kainate-evoked current

SMILES: C=C1[C@@H](O)[C@@H]2O[C@]3(CC[C@H](/C=C/[C@@H](C)[C@@H]4CC(C)=C[C@@]5(O[C@H](C[C@@](C)(O)C(=O)O)CC[C@H]5O)O4)O3)CC[C@H]2O[C@@H]1[C@@H](O)C[C@H](C)[C@H]1O[C@@]2(CCCCO2)CC[C@H]1C [okadaic acid]
- effect on kainate-evoked current prior to application of topiramate ([1]; 1 micromolar): little effect
- effect on topiramate's initial antagonistic effect (phase I block) [1, 5]: did not affect
- effect on topiramate's phase II block [1, 5]: phase II block was prevented

SMILES: CC1(C)O[C@@H]2[C@@H](CO[C@@]3(COS(N)(=O)=O)OC(C)(C)O[C@@H]23)O1 [topiramate, 2,3:4,5-bis-O-(1-methylethylidene)-β-D-fructopyranosesulfamate]
- EC50 ([1]; phase I block (early, reversible), read-out: EC50 of block of kainate-evoked current, first phase (phase I block)): ~1 µM
- EC50 ([1]; phase II block (constant application more than 10 min), read-out: EC50 of block of kainate-evoked current, second phase (phase II block)): ~1 µM
- onset of partial block of kainate-evoked current ([1]; kainate pulsed 3 sec at 1 min intervals, topiramate applied constantly): evident within one min
- concentration required for a maximum response, phase I block ([1]; phase I block): approximately 0.1 mM
- concentration required for a maximum response, phase II block ([1]; phase II block): approximately 0.010 mM
- magnitude of antagonistic effect on kainate-induced membrane currents after prolonged application ([1]; topiramate applied constantly for more than 10 min): increased markedly
- kainate-evoked current after withdrawal following prolonged application ([1]; topiramate applied more than 10 min, then withdrawn): remained depressed
- reversibility of early block on washout ([1]; topiramate withdrawn (washed out) within 5 min): readily reversed
- dependence of antagonistic effect on membrane potential ([1]; voltage-clamped potentials -60 mV to +60 mV at 20 mV increments): most effective at membrane potentials near the resting state
- block of seizures [2]: effectively block seizures
- block of seizures [3]: effectively block seizures
- efficacy in simple and complex partial seizures and secondarily generalized seizures [4]: effective as adjunctive therapy or as monotherapy
